The source made the active and inactive calls.
Tests used:
Vero [1] = test: host cell cytotoxicity of antiviral hits, dose response, cytotoxicity control for West Nile virus antiviral project, secondary assay (AID 1650); type: functional; conditions: Chlorocebus sabaeus
Vero [2] = test: West Nile virus antiviral activity, cell-based, CPE readout (AID 1621); type: functional; conditions: Chlorocebus sabaeus
[3] = target: Solute carrier family 12 member 2/member 5 (Homo sapiens, UniProt P55011+Q9H2X9); test: KCC2 and NKCC1 inhibition by rubidium flux, cell-based, NKCC1 counter-screen (AID 1734); type: functional, HEK293
Genome polyprotein = Genome polyprotein (Hepatitis C virus, UniProt Q2Q167); test: HCV core protein dimerization inhibitors, dose response, biochemical, TR-FRET (AID 2159); parameters: species or system Hepacivirus hominis;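 further: blocks dimerization of HCV core protein measured by TR-FRET between tagged core106 pairs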
[4] = target: Peroxisome proliferator-activated receptor gamma/Nuclear receptor coactivator 2 (Homo sapiens, UniProt P37231); type: functional;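 further: agonist potency for raising coactivator recruitment to the receptor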
[5] = target: Peroxisome proliferator-activated receptor gamma/Nuclear receptor coactivator 3 (Homo sapiens, UniProt P37231); type: functional;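 further: agonist potency for raising coactivator recruitment to the receptor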
[6] = target: Peroxisome proliferator-activated receptor gamma/Nuclear receptor coactivator 1 (Homo sapiens, UniProt P37231); type: functional;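 further: agonist potency as compounds enhance coactivator SRC-1 recruitment to PPARgamma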
[7] = target: Eukaryotic translation initiation factor 4E (Mus musculus, UniProt P63073); test: eIF4E–eIF4G protein interaction inhibitors, dose response, biochemical, TR-FRET (AID 855); type: functional;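 further: potency for disrupting eIF4E binding to eIF4GI seen as loss of FRET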
[8] = target: 72 kDa type IV collagenase (Homo sapiens, UniProt P08253); test: Dose Response validation of uHTS RPN11 inhibitor hits using a MMP-2 Fluorescence assay.; type: functional
[9] = target: 26S proteasome non-ATPase regulatory subunit 14 (Homo sapiens, UniProt O00487); test: inhibition of proteasome subunit RPN11 – biochemical, fluorescence polarization, uHTS hits, confirmation (AID 602368); type: functional
Prothrombin = Prothrombin (Bos taurus, UniProt P00735); test: thrombin inhibition, dose response, biochemical, fluorescence polarization, uHTS hits (AID 602369); type: functional
[10] = target: DNA (cytosine-5)-methyltransferase 1 (Homo sapiens, UniProt P26358); test: DNMT1 methyltransferase inhibitors, confirmation, biochemical, fluorescent molecular beacon (AID 602386); type: functional
[11] = target: DNA dC->dU-editing enzyme APOBEC-3G (Homo sapiens, UniProt Q9HC16); test: Dose Response confirmation of small molecule APOBEC3G DNA Deaminase Inhibitors via a fluorescence-based single-stranded DNA deaminase assay. [Related pubchem assays (depositor defined):AID493012, AID493028]; type: functional
[12] = target: T1, Carboxy-terminal domain RNA polymerase II polypeptide A small phosphatase 1 (Homo sapiens, UniProt Q9GZU7); test: inhibitors of CTDSP1, concentration-response testing, biochemical assay, absorbance-based, actives from ultra-high-throughput screening (AID 540297); type: functional
T1 sequence (Q9GZU7 whole entry): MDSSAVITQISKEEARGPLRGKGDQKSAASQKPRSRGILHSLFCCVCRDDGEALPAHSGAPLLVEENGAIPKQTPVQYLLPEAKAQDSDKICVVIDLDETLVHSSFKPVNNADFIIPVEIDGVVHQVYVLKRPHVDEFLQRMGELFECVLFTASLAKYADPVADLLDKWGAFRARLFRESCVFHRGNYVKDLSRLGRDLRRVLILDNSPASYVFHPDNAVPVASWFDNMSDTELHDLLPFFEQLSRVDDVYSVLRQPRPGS

[13] = target: E3 ubiquitin-protein ligase UHRF1 (Homo sapiens, UniProt Q96T88); test: Counterscreen for inhibitors of 5-meCpG-binding domain protein 2 (MBD2): TRFRET-based biochemical high throughput dose response assay to identify inhibitors of binding of ubiquitin-like with PHD and ring finger domains 1 (UHRF1) to methylated oligonucleotide.
[14] = target: DNA dC->dU-editing enzyme APOBEC-3A (Homo sapiens, UniProt P31941); test: APOBEC3A DNA deaminase inhibitors, dose response, biochemical (AID 504722); type: functional
[15] = NIH-3T3 fibroblast cytotoxicity, dose response, cytotoxicity control, cell-based, fluorescence, Alamar Blue, secondary assay (AID 2327); type: functional;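 further: NIH-3T3 mouse fibroblasts cultured with fluconazole at 8 µg/mL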
cells [16] = type: functional, cell-based
[17] = C. albicans growth with fluconazole, confirmation, fluorescence, retest (AID 2467); type: functional, cell-based
cells [18] = type: functional, cell-based; remark: listed apart in the source
[19] = target: Voltage-gated inwardly rectifying potassium channel KCNH2 (Homo sapiens, UniProt Q12809); test: hERG protection from proarrhythmic block, potency, dose response, cell-based, thallium flux (AID 2121); type: ADME
Fibrinogen beta chain [20] = target: T2, Fibrinogen beta chain (Homo sapiens, UniProt P02675); test: Fluorescence polarization-based biochemical high throughput dose response assay to identify inhibitors that disrupt the binding of a cyclic peptide (Tn6) to the fibrin proteolytic product D-Dimer and fragment E complex [DD(E )].
Fibrinogen beta chain [21] = target: T2, Fibrinogen beta chain; test: Fluorescence polarization-based biochemical high throughput dose response assay to identify inhibitors that disrupt the binding of a cyclic peptide (Tn7) to the fibrin proteolytic product D-Dimer and fragment E complex [DD(E )].
[22] = target: Aryl hydrocarbon receptor (Homo sapiens, UniProt P35869); test: Luminescence-based cell-based high throughput dose response assay for activators of the Aryl Hydrocarbon Receptor (AHR). [Related pubchem assays: 2796 (Primary screen (AHR activators in singlicate)), 2845 (Confirmation screen (AHR activators in triplicate)), 434939 (Counterscreen (PXR activators in triplicate)), 2804 (Summary (AHR activators))]; type: ADME
[23] = inhibitors of SNCA 5'UTR-driven reporter translation, confirmation, H4 neuroglioma cells, luminescence (AID 1988); type: functional, cell-based
[24] = inhibitors of firefly luciferase expression or activity, dose response, H4 neuroglioma cells, luminescence (AID 1990); type: functional, cell-based
BJ [25] = test: cytotoxicity toward BJ-TERT fibroblasts, dose response, cell-based, RAS-independent, luminescence (AID 1933); type: functional; conditions: Homo sapiens
[26] = cytotoxicity in HEK-293T cells, dose response, cytotoxicity control for TCR NF-kB inhibitor project, luminescence, T-cell screen hits (AID 489026); type: functional, cell-based;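 further: cells exposed to compound about 14 hours before the viability readout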
BJ [27] = test: cells; type: functional, cell-based; conditions: Homo sapiens
[28] = HEK293 cell cytotoxicity, dose response, cytotoxicity control, dry powder samples (AID 720567); type: functional, cell-based
[29] = cytotoxicity toward DRD oncogenic fibroblasts, dose response, cell-based, non-viral oncogenic, luminescence (AID 1934); type: functional; conditions: Homo sapiens
BJ [30] = test: cytotoxicity toward BJ-TERT-LT-ST fibroblasts, dose response, cell-based, RAS-independent, luminescence (AID 1935); type: functional; conditions: Homo sapiens;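 further: BJ fibroblasts immortalized with TERT plus LT and ST oncogenes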
[31] = Luminescence Cell-Based Dose Response HTS to Identify Inhibitors of 5'UTR Stem-Loop Driven Prion Protein mRNA Translation in H4 Neuroglioblastoma Cells. [Related pubchem assays: 1827 (Project Summary), 1813 (Primary HTS)]; type: functional
[32] = target: T3, Oxysterols receptor LXR-beta (Homo sapiens, UniProt P55055); test: LXR agonists, Gal4 luciferase reporter, dose response, counter-screen for ssDAF-12 agonist project, cell-based, luminescence, HEK293, S. stercoralis campaign (AID 720737); type: functional; conditions: read-out: IC50 (the source's name)
T3 sequence (P55055 whole entry): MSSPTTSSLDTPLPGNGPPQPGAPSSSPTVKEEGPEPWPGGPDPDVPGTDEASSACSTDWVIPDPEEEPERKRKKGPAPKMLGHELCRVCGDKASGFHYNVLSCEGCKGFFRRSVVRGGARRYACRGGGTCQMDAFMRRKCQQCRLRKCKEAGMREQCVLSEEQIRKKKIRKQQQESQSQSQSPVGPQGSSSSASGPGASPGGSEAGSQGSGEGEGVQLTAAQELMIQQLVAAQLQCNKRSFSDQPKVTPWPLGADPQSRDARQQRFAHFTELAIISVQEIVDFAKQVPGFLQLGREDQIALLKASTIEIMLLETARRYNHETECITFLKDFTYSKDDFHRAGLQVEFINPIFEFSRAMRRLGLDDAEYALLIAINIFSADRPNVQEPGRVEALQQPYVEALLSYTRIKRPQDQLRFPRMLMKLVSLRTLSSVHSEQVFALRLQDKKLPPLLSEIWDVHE

[33] = Luminescence-based cell-based high throughput dose response assay to identify activators of the DAF-12 from the parasite S. stercoralis (ssDAF-12).; type: functional

T2 sequence (P02675 whole entry, the tested form may be a part): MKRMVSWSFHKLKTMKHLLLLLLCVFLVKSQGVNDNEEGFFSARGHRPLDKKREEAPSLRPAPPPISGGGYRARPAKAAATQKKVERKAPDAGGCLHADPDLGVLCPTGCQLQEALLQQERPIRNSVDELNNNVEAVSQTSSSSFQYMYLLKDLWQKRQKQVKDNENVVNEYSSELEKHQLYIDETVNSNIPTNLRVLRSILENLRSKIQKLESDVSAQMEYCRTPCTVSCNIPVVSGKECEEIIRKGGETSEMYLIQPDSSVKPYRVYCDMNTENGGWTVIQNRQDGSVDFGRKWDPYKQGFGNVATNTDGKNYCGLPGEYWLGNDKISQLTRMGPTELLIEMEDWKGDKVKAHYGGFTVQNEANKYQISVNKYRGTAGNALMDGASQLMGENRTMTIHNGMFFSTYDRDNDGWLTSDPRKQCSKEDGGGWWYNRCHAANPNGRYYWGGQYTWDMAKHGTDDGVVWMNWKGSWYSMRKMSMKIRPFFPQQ
Chain of Voltage-gated inwardly rectifying potassium channel KCNH2 (Q12809 whole entry, the tested form may be a part): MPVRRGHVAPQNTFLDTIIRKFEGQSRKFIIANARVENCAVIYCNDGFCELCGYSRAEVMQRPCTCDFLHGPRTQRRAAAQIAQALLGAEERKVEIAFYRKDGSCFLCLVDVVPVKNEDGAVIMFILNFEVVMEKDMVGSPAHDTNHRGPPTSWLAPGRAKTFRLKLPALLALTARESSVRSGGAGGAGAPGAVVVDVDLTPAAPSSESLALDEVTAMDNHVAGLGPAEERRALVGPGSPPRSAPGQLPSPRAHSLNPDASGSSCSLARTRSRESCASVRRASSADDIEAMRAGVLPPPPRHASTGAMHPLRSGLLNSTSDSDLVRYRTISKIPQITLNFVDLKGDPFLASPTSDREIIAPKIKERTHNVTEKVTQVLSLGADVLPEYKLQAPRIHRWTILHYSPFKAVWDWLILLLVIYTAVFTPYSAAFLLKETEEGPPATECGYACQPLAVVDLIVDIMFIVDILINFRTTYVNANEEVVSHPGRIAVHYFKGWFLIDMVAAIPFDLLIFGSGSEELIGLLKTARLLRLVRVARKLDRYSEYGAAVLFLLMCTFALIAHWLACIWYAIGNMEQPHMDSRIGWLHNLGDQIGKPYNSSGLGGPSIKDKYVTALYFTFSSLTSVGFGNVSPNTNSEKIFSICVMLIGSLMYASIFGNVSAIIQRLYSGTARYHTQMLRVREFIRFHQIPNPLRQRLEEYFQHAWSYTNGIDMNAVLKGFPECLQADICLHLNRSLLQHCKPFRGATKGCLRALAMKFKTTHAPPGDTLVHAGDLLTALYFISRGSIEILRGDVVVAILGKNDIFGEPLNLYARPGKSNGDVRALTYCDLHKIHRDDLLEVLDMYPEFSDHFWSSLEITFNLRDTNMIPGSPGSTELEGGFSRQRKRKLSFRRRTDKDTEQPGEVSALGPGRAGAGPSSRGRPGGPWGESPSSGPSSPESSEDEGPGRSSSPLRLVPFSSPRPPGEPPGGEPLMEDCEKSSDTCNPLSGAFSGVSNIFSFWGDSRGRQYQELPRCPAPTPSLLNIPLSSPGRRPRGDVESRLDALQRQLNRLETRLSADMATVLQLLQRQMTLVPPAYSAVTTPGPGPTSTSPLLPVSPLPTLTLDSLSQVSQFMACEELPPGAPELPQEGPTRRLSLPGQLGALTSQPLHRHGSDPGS
Chain of DNA dC->dU-editing enzyme APOBEC-3G (Q9HC16 whole entry, the tested form may be a part): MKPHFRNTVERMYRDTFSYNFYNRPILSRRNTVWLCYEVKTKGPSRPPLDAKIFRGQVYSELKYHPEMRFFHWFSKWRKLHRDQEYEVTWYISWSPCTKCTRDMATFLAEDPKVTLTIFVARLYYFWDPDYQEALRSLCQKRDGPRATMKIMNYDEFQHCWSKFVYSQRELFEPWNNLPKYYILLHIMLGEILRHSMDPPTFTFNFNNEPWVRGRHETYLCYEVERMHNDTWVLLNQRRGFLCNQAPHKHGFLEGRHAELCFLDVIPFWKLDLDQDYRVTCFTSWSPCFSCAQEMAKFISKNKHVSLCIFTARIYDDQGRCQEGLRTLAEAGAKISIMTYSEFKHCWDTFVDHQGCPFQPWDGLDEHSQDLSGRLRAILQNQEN
Chain of DNA dC->dU-editing enzyme APOBEC-3A (P31941 whole entry): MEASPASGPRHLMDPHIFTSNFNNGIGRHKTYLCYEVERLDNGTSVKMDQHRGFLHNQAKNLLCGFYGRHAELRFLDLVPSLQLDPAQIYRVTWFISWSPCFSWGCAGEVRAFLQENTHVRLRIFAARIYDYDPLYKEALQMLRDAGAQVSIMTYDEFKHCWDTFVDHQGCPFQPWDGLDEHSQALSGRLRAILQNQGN
Chain of 72 kDa type IV collagenase (P08253 whole entry): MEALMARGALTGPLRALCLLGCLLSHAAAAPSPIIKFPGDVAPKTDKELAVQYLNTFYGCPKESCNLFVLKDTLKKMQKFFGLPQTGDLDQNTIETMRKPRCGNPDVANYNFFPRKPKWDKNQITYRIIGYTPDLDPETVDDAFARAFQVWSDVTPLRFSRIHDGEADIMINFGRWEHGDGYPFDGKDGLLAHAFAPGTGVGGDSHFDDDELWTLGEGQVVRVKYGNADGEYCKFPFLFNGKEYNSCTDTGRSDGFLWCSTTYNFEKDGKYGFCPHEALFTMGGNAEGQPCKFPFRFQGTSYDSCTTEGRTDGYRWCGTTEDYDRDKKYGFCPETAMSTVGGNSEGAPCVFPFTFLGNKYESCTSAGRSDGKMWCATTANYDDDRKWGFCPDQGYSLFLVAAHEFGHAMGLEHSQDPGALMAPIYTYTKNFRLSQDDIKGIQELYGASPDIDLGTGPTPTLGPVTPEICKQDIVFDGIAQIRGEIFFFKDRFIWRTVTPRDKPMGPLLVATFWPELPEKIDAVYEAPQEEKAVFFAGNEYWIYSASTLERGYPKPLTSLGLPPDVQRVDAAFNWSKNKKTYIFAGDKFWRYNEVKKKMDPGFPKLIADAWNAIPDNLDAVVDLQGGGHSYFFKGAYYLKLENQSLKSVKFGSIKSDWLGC
Chain of Genome polyprotein (Q2Q167 whole entry): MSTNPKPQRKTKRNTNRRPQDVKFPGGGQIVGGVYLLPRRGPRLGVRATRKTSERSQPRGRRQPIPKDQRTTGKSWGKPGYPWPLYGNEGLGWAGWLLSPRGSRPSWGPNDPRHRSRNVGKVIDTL
Chain of Eukaryotic translation initiation factor 4E (P63073 whole entry): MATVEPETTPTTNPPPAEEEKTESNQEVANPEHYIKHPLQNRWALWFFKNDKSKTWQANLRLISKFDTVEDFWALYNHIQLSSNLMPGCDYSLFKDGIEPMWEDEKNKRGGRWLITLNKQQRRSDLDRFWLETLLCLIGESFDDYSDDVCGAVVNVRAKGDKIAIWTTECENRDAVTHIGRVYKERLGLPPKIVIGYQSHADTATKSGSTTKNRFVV
Chain of 26S proteasome non-ATPase regulatory subunit 14 (O00487 whole entry): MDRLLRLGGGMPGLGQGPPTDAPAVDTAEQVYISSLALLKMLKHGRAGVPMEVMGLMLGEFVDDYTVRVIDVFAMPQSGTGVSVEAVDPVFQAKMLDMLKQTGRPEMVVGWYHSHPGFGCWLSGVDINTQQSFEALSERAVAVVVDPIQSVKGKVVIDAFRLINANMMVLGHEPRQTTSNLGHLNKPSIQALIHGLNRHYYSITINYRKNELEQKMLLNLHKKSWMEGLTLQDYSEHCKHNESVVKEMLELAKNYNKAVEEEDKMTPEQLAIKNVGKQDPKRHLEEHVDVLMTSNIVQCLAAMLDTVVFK
Chain of Aryl hydrocarbon receptor (P35869 whole entry): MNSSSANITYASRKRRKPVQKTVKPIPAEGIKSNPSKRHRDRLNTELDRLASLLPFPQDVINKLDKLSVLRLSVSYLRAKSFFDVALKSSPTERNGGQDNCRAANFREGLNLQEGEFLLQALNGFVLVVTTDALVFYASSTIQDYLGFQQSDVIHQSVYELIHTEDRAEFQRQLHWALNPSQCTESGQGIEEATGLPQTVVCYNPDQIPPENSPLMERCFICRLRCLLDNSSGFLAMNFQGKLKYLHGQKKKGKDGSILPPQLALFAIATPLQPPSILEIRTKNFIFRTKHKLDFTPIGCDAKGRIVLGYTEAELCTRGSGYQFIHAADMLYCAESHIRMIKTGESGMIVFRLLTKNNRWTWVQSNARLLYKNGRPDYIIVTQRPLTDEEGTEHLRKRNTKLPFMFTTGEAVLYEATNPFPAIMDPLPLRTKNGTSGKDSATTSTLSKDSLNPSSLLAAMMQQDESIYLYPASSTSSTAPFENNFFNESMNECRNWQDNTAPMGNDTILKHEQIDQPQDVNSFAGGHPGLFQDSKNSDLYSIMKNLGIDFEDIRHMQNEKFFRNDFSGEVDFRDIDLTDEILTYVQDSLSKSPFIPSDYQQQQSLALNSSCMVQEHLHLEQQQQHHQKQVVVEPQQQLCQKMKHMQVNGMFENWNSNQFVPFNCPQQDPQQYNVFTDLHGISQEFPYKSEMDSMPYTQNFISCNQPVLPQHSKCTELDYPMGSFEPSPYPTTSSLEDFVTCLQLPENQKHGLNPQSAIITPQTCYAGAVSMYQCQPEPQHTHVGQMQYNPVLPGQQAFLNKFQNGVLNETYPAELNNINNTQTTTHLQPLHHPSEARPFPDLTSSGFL

**Q.** For `CCC1CCCCN1CCCNC(=O)c1cc2c(Cl)nc3ccccc3c2s1` (stereo not given), which CC50 (Vero [1]) is on record?
**A.** Its CC50 is 12.7 µM (active).

**Q.** What about the IC50 (Vero [2]) of the same compound?
**A.** The IC50 was 8.75 µM (active).

**Q.** With `O=C(Cn1cnc2c(nnn2Cc2ccccc2)c1=O)c1ccc(Cl)cc1` as the compound, how does the IC50 [3] read?
**A.** The IC50 was 1.2 µM (active).

**Q.** For `Cc1cc(OCC(=O)Nc2cc(-c3nn4c(C)nnc4s3)ccc2C)ccc1Cl`, which IC50 (Genome polyprotein) is on record?
**A.** Its IC50 is > 49.8 µM (not active).

**Q.** What about the EC50 [4] of the same compound?
**A.** Its EC50 is 10.1 µM (not active).

**Q.** And the EC50 [5]?
**A.** Its EC50 is 8.97 µM (active).

**Q.** What about the EC50 [6] of the same compound?
**A.** The EC50 was 9.05 µM (active).

**Q.** Which results are given for `Cc1c2cnn(CC(=O)Nc3c(F)c(F)cc(F)c3F)c(=O)c2c(C)n1Cc1ccccc1F`?
**A.** IC50 [7]: 50 µM (inactive); IC50 [8]: > 100 µM (inactive); IC50 [9]: 19.5 µM (active); IC50 (Prothrombin): 50.5 µM (active); IC50 [10]: 7.6 µM (active); IC50 [11]: 9.31 µM (active); IC50 [12]: 2.96 µM (active); IC50 [13]: > 43.8 µM (inactive); IC50 [14]: 49.3 µM (active)

**Q.** For `COc1ccc(NC(=O)C(=O)NNC(=O)c2ccc(Cl)cc2Cl)cc1`, which EC50 [15] is on record?
**A.** The EC50 was > 150 µM (inactive).

**Q.** And the EC50 (cells [16])?
**A.** The EC50 was > 350 µM (not active).

**Q.** And the EC50 [17]?
**A.** The EC50 was 2.28 µM (active).

**Q.** What about the EC50 (cells [18]) of the same compound?
**A.** Its EC50 is > 350 µM (not active).

**Q.** What about the EC50 [19] of the same compound?
**A.** The EC50 was 0.5 µM (active).

**Q.** For `CN1CCS/C1=C/C=C1/SC(=S)N(Cc2ccccc2)C1=O`, which IC50 (Fibrinogen beta chain [20]) is on record?
**A.** Its IC50 is 10.2 µM (inactive).

**Q.** What about the IC50 (Fibrinogen beta chain [21]) of the same compound?
**A.** The IC50 was > 83.3 µM (inactive).

**Q.** With `COc1ccccc1NC(=O)Nc1cccnc1` as the compound, how does the EC50 [22] read?
**A.** Its EC50 is 2.25 µM (active).

**Q.** Which EC50 [23] does the source give for `CCCOC(=O)c1[nH]c2c(c1C)C(=O)CC(c1cccs1)C2` (stereo not given) here?
**A.** The EC50 was 0.167 µM (active).

**Q.** What about the EC50 [24] of the same compound?
**A.** Its EC50 is 0.391 µM (active).

**Q.** What about the EC50 (BJ [25]) of the same compound?
**A.** Its EC50 is 0.567 µM (active).

**Q.** And the IC50 [26]?
**A.** Its IC50 is > 80 µM (inactive).

**Q.** And the EC50 (BJ [27])?
**A.** The EC50 was 1.82 µM (active).

**Q.** What about the AC50 [28] of the same compound?
**A.** Its AC50 is 0.594 µM (active).

**Q.** What about the EC50 [29] of the same compound?
**A.** Its EC50 is 0.615 µM (active).

**Q.** And the EC50 (BJ [30])?
**A.** The EC50 was 0.399 µM (active).

**Q.** What about the EC50 [31] of the same compound?
**A.** Its EC50 is 1.01 µM (active).

**Q.** For `Cc1ccnc(NC(=O)c2ccc3nc(O)c(O)nc3c2)c1`, which EC50 [32] is on record?
**A.** The EC50 was > 67.5 µM (inactive).

**Q.** And the IC50 [33]?
**A.** The IC50 was > 67.5 µM (inactive).

Reference: ChEMBL document CHEMBL1201862, “PubChem BioAssay data set” (2004)
